The source of these data is patent publication EP3778613A1, “THIRD GENERATION DENDRIMER, PROCESS FOR PRODUCTION THEREOF AND USE THEREOF” (Consejo Superior de Investigaciones Científicas (CSIC), priority 2019, dated 2021).

The nature of assay [1]: Kinetics of reduction of PROXYL with ascorbate, followed by EPR. The assay is classed as physicochemical. To be noted: nitroxide reduction with sodium ascorbate (10-fold excess per PROXYL unit), 100 mM PB pH 7.4, 300 K. An excerpt: Electronic Paramagnetic Resonance Spectroscopy (EPR) spectra were obtained with an X-Band (9.4 GHz) Bruker ELEXSYS 500 spectrometer equipped with a TE102 microwave cavity, a Bruker variable temperature unit, a field frequency lock system Bruker ER 033 M and equipped with a NMR Gaussmeter Bruker ER 035 M. The modulation amplitude was kept well below the line width, and the microwave power was well below saturation. All samples were previously degassed with Ar. Experiments in aqueous phase were carried out with a quartz flat cell.
Kinetics of reduction of PROXYL with ascorbate. All the solutions were freshly prepared in 100 mM phosphate buffer, pH 7.4. […]
The effect of the dendritic scaffold on nitroxyl rate of reduction was investigated under pseudo-first-order conditions, using a 10-fold excess of sodium ascorbate per PROXYL unit in 100 mM PB pH 7.4 at 300 K. The reduction was monitored by EPR spectroscopy following the decrease of the area under the spectra as a function of time (Figure 4a). As reference, the rate of reduction of 3-carboxy-PROXYL was determined under identical conditions. […] Rate constants were determined by EPR spectroscopy following the decrease of the area under the spectra as a function of time.

The nature of assay [2]: Relaxometric measurements (r1, r2 relaxivity) by MRI at 7 T. Particulars: 100 mM phosphate buffer pH 7.4, 300K. On the procedure:
Magnetic Resonance Imaging (MRI) experiments were carried out in a BioSpec 70/30 Bruker system using a 7.0 T horizontal-bore superconducting magnet equipped with actively shielded gradients (B-GA12 gradient coil inserted into a B-GA20S gradient system). A quadrature 72 mm inner diameter volume coil was used for in vitro studies.
Relaxometric measurements. Longitudinal (r1) and transverse (r2) relaxivities were determined per concentration of PROXYL units. […] The software used for the calculations of T1 and T2 relaxations was Paravision 6.0 (Bruker Software). r1 relaxivity. Series of axial T1-weighted (T1W) images were acquired for each concentration of PROXYL to obtain T1 maps based on a magnetization saturation experiment and the following parameters: repetition time (TR) = 70-6000 ms, echo time (TE) = 9.2 ms, field of view (FOV) = 2.5 x 2.5 cm, averages (Av) = 1, acquisition matrix (Mtx) = 128 x 128. The T1 values were calculated from the mean signal in the region of interest (ROI) for each repetition time, adjusted to the equation: S = S0 [1 - […]]. r2 relaxivity. T2 maps were calculated from multi spin echo images with a TR of 2 s. 25 echo images were acquired with a TE of 8.02 ms, which was the interval time between echo images acquisitions, too. […] The T2 values were calculated from mean signal in the ROI for each echo image, adjusted according to the equation: S = S0 […]]. […]

For assay [3] the following is noted: r.t. 7T, reference value for the clinical Gd contrast agent; cited from earlier work.

For `CC1(C)CC(C(=O)O)C(C)(C)N1[O]` (stereo not shown) [3-carboxy PROXYL, 3-carboxy-PROXYL], in assay [1], the “Initial stage k (M^-1s^-1) x 10^3” value was found to be 11.2 M^-1s^-1 x 10^3. For the same compound, the “r1^7T” value in assay [2] (longitudinal relaxivity per unit of nitroxyl radical) came out at 0.20 ± 0.014 mM⁻¹ s⁻¹. Further, the “r2^7T” value in assay [2] (transverse relaxivity per unit of nitroxyl radical) was 0.23 ± 0.06 mM⁻¹ s⁻¹.
In the case of `O=C([O-])CN(CCN(CC(=O)[O-])CC(=O)O)CCN(CC(=O)[O-])CC(=O)O.[Gd+3]` [Gd-DTPA], in assay [3], the relaxivity is 3.2 s⁻¹ mM⁻¹.
